Counter-ions that a name gives are not always drawn.

The target of this assay is human SGLT2 (Homo sapiens (Human), UniProt P31639). Put plainly: Inhibitory effects on human SGLT2 activities (14C-AMG uptake, sodium-dependent glucose transport assay). The format is cell-based. As to conditions: CHO cells stably expressing hSGLT2, 37° C., 2 h, single determinations. Put shortly: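 CHO cells stably expressing hSGLT2 were preincubated 10 min at 37 °C in choline (Na+-free) buffer, then exposed 2 h at 37 °C to compound in Na+ uptake buffer with 8 μM 14C-AMG and 1 mM unlabeled AMG. Radioactivity was scintillation counted; IC50 came from nonlinear regression.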
Chain of human SGLT2 (P31639 whole entry): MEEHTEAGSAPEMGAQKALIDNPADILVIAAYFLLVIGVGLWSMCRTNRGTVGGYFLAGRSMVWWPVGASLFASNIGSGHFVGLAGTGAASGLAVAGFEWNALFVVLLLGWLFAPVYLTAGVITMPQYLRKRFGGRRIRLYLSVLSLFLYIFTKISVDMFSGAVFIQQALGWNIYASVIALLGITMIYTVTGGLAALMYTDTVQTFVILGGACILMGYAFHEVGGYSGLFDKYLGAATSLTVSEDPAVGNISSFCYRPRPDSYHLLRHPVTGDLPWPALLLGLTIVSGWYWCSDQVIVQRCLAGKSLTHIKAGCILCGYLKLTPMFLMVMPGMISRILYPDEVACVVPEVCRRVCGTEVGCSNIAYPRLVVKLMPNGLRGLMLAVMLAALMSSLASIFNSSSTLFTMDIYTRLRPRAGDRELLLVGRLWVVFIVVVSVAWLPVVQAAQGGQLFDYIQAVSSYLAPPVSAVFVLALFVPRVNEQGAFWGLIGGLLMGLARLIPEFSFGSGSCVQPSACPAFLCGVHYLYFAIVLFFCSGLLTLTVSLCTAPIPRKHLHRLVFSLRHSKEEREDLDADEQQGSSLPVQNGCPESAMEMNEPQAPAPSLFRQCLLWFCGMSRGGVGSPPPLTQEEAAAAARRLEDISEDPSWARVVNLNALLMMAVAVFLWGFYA
As usually defined, the IC50 is the midpoint of a concentration-inhibition curve. `OC[C@H]1O[C@@H](c2ccc(Cl)c(Cc3ccc4ncccc4c3)c2)[C@H](O)[C@@H](O)[C@@H]1O` [Example E025, (2S,3R,4R,5S,6R)-2-(4-Chloro-3-(quinolin-6-ylmethyl)phenyl)-6-(hydroxymethyl)tetrahydro-2H-pyran-3,4,5-triol] registered a concentration for half-maximal inhibition (IC50) of 1.85 nM. In other words, the single-digit nanomolar range.
Next, `CCOc1ccc(Cc2cc([C@@H]3O[C@H](CO)[C@@H](O)[C@H](O)[C@H]3O)c3c(c2Cl)C(C)(C)CO3)cc1` [Example E223, (2S,3R,4R,5S,6R)-2-(4-Chloro-5-(4-ethoxybenzyl)-3,3-dimethyl-2,3-dihydrobenzofuran-7-yl)-6-(hydroxymethyl)-tetrahydro-2H-pyran-3,4,5-triol]: 4.16 nM; `OCCCOc1ccc(Cc2cc([C@@H]3O[C@H](CO)[C@@H](O)[C@H](O)[C@H]3O)c3c(c2Cl)OCC3)cc1` [Example E193, (2S,3R,4R,5S,6R)-2-(7-Chloro-6-(4-(3-hydroxypropoxy)benzyl)-2,3-dihydrobenzofuran-4-yl)-6-(hydroxymethyl)tetrahydro-2H-pyran-3,4,5-triol]: 1.87 nM; `CCc1ccc(Cc2cc([C@@H]3O[C@H](CO)[C@@H](O)[C@H](O)[C@H]3O)c3c(c2Cl)C(C)(C)CO3)cc1` [Example E217, (2S,3R,4R,5S,6R)-2-(4-Chloro-5-(4-ethylbenzyl)-3,3-dimethyl-2,3-dihydrobenzofuran-7-yl)-6-(hydroxymethyl)tetrahydro-2H-pyran-3,4,5-triol]: 1.76 nM.
Next, `OC[C@H]1O[C@@H](c2ccc(Cl)c(Cc3ccc4c(c3)OCO4)c2)[C@H](O)[C@@H](O)[C@@H]1O` [Example E056, (2S,3R,4R,5S,6R)-2-(3-(Benzo[d][1,3]dioxol-5-ylmethyl)-4-chlorophenyl)-6-(hydroxymethyl)-tetrahydro-2H-pyran-3,4,5-triol]: 2.58 nM.
`OC[C@H]1S[C@@H](c2ccc(Cl)c(Cc3ccc4c(c3)OCCO4)c2)[C@H](O)[C@@H](O)[C@@H]1O` [Example E047, (2S,3R,4R,5S,6R)-2-(4-Chloro-3-((2,3-dihydrobenzo[b][1,4]dioxin-6-yl)methyl)phenyl)-6-(hydroxymethyl)tetrahydro-2H-thiopyran-3,4,5-triol] came in with an IC50 of 4.17 nM.
Regarding `OC[C@H]1O[C@@H](c2cc(Cc3ccc4c(c3)NCCC4)c(Cl)c3c2CCO3)[C@H](O)[C@@H](O)[C@@H]1O` [Example E230, (2S,3R,4R,5S,6R)-2-(7-Chloro-6-((1,2,3,4-tetrahydroquinolin-7-yl)methyl)-2,3-dihydrobenzofuran-4-yl)-6-(hydroxymethyl)-tetrahydro-2H-pyran-3,4,5-triol], the IC50 worked out at 2.49 nM.
In the case of `CCc1ccc(Cc2cc([C@@H]3O[C@H](CO)[C@@H](O)[C@H](O)[C@H]3O)c3c(c2Cl)CC(C)S3)cc1` (stereo partly drawn) [Example E144, (2S,3R,4R,5S,6R)-2-(4-Chloro-5-(4-ethylbenzyl)-2-methyl-2,3-dihydrobenzo[b]thiophen-7-yl)-6-(hydroxymethyl)tetrahydro-2H-pyran-3,4,5-triol] it was 0.976 nM; in that of `OC[C@H]1O[C@@H](c2cc(Cc3ccc(C(F)(F)F)cc3)c(Cl)c3c2CCO3)[C@H](O)[C@@H](O)[C@@H]1O` [Example E124, (2S,3R,4R,5S,6R)-2-(7-Chloro-6-(4-(trifluoromethyl)benzyl)-2,3-dihydrobenzofuran-4-yl)-6-(hydroxymethyl)tetrahydro-2H-pyran-3,4,5-triol], 1.25 nM; in that of `CSc1ccc(C2OCc3ccc([C@@H]4O[C@H](CO)[C@@H](O)[C@H](O)[C@H]4O)cc32)cc1` (stereo partly drawn) [Example E102, (2R,3S,4R,5R,6S)-2-(Hydroxymethyl)-6-(3-(4-(methylthio)phenyl)-1,3-dihydroisobenzofuran-5-yl)-tetrahydro-2H-pyran-3,4,5-triol], 75.7 nM.
Regarding `CCOc1ccc(Cc2cc([C@@H]3O[C@H](CO)[C@@H](O)[C@H](O)[C@H]3O)cc(-c3ccc(F)cc3)c2C)cc1` [Example E078], the IC50 came to 93.3 nM.
In the case of `COc1ccc(Cc2cc([C@@H]3O[C@H](CO)[C@@H](O)[C@H](O)[C@H]3O)c3c(c2Cl)C(=O)CO3)cc1` [Example E195, 4-Chloro-5-(4-methoxybenzyl)-7-((2S,3R,4R,5S,6R)-3,4,5-trihydroxy-6-(hydroxymethyl)tetrahydro-2H-pyran-2-yl)benzofuran-3(2H)-one] it was 35.1 nM; in that of `CCOc1ccc(Cc2cc([C@@H]3O[C@H](CO)[C@@H](O)[C@H](O)[C@H]3O)c3c(c2Cl)OCC3=O)cc1` [Example E226], 10.5 nM; in that of `COc1ccc(Cc2cc([C@@H]3O[C@H](CO)[C@@H](O)[C@H](O)[C@H]3O)c3c(c2Cl)CC(C)(C)O3)cc1` [Example E219, (2S,3R,4R,5S,6R)-2-(4-Chloro-5-(4-methoxybenzyl)-2,2-dimethyl-2,3-dihydrobenzofuran-7-yl)-6-(hydroxymethyl)tetrahydro-2H-pyran-3,4,5-triol], 1.61 nM.
As for `CCc1ccc(Cc2cc([C@@H]3O[C@H](CO)[C@@H](O)[C@H](O)[C@H]3O)c3c(c2Cl)CCO3)cc1` [Example E010, (2S,3R,4R,5S,6R)-2-(4-Chloro-5-(4-ethylbenzyl)-2,3-dihydrobenzofuran-7-yl)-6-(hydroxymethyl)tetrahydro-2H-pyran-3,4,5-triol], the IC50 turned out to be 0.884 nM.
In turn, `CC(=O)c1ccc(Cc2cc([C@@H]3O[C@H](CO)[C@@H](O)[C@H](O)[C@H]3O)c3c(c2Cl)OCC3)cc1` [Example E168, 1-(4-((7-Chloro-4-((2S,3R,4R,5S,6R)-3,4,5-trihydroxy-6-(hydroxymethyl)tetrahydro-2H-pyran-2-yl)-2,3-dihydrobenzofuran-6-yl)methyl)phenyl)ethanone] displayed an IC50 of 0.96 nM.
For the compound `OC[C@H]1O[C@@H](c2cc(Cc3ccc4c(c3)OCCO4)c(Cl)c3c2OCCO3)[C@H](O)[C@@H](O)[C@@H]1O` [Example E103, (2S,3R,4R,5S,6R)-2-(8-Chloro-7-((2,3-dihydrobenzo[b][1,4]dioxin-6-yl)methyl)-2,3-dihydrobenzo[b][1,4]dioxin-5-yl)-6-(hydroxymethyl)tetrahydro-2H-pyran-3,4,5-triol], the IC50 was 1.82 nM.
Take `CC(C)n1ncc2cc(Cc3cc([C@@H]4O[C@H](CO)[C@@H](O)[C@H](O)[C@H]4O)ccc3Cl)ccc21` [Example E039, (2S,3R,4R,5S,6R)-2-(4-Chloro-3-((1-isopropyl-1H-indazol-5-yl)methyl)phenyl)-6-(hydroxymethyl)tetrahydro-2H-pyran-3,4,5-triol]: the IC50 turned out to be 1.76 nM. The IC50 values of the last two compounds are within 1.5-fold of each other.
In the case of `C=CCOc1cc(Cl)c(Cc2ccc(OC)cc2)cc1[C@@H]1O[C@H](OC)[C@@H](O)[C@H](O)[C@H]1O` [Example E115, (2S,3R,4R,5S,6S)-2-(2-(Allyloxy)-4-chloro-5-(4-methoxybenzyl)phenyl)-6-methoxytetrahydro-2H-pyran-3,4,5-triol] it was 7.06 nM.
Next, `OC[C@H]1O[C@@H](c2ccc(Cl)c(Cc3ccc4c(c3)SCCO4)c2)[C@H](O)[C@@H](O)[C@@H]1O` [Example E072, (2S,3R,4R,5S,6R)-2-(4-Chloro-3-((2,3-dihydrobenzo[b][1,4]oxathiin-6-yl)methyl)phenyl)-6-(hydroxymethyl)-tetrahydro-2H-pyran-3,4,5-triol]: 1.75 nM.
Next, `CC(F)(F)c1ccc(Cc2cc([C@@H]3O[C@H](CO)[C@@H](O)[C@H](O)[C@H]3O)c3c(c2Cl)OCC3)cc1` [Example E177, (2S,3R,4R,5S,6R)-2-(7-Chloro-6-(4-(1,1-difluoroethyl)benzyl)-2,3-dihydrobenzofuran-4-yl)-6-(hydroxymethyl)tetrahydro-2H-pyran-3,4,5-triol]: 0.91 nM.
In the case of `OC[C@H]1O[C@@H](c2cc(Cc3ccc(CN4CC4)cc3)c(Cl)c3c2CCO3)[C@H](O)[C@@H](O)[C@@H]1O` [Example E185, (2S,3R,4R,5S,6R)-2-(6-(4-(Aziridin-1-ylmethyl)benzyl)-7-chloro-2,3-dihydrobenzofuran-4-yl)-6-(hydroxymethyl)tetrahydro-2H-pyran-3,4,5-triol trifluoro acetic acid salt], the midpoint of inhibition, the IC50, lay at 164 nM.
Compound `COc1ccc(Cc2cc([C@@H]3O[C@H](CO)[C@@H](O)[C@H](O)[C@H]3O)c3c(c2Cl)SCC3)cc1` [Example E241, (2S,3R,4R,5S,6R)-2-(7-Chloro-6-(4-methoxybenzyl)-2,3-dihydrobenzo[b]thiophen-4-yl)-6-(hydroxymethyl)tetrahydro-2H-pyran-3,4,5-triol] yielded an IC50 of 0.902 nM.
Consider `Cn1ncc2cc(Cc3cc([C@@H]4O[C@H](CO)[C@@H](O)[C@H](O)[C@H]4O)ccc3Cl)ccc21` [Example E035, (2S,3R,4R,5S,6R)-2-(4-Chloro-3-((1-methyl-1H-indazol-5-yl)methyl)phenyl)-6-(hydroxymethyl)tetrahydro-2H-pyran-3,4,5-triol], for which 1.72 nM corresponded to half-maximal inhibition (IC50).
For `OC[C@H]1O[C@@H](c2cc(Cc3ccc(C4CCCC4)cc3)c(Cl)c3c2CCO3)[C@H](O)[C@@H](O)[C@@H]1O` [Example E233, (2S,3R,4R,5S,6R)-2-(7-Chloro-6-(4-cyclopentylbenzyl)-2,3-dihydrobenzofuran-4-yl)-6-(hydroxymethyl)-tetrahydro-2H-pyran-3,4,5-triol], the IC50 came out at 1.16 nM.
The compound `CC1Cc2cc(Cc3cc([C@@H]4O[C@H](CO)[C@@H](O)[C@H](O)[C@H]4O)ccc3Cl)ccc2O1` (stereo partly drawn) [Example E065, (2S,3R,4R,5S,6R)-2-(4-Chloro-3-((2-methyl-2,3-dihydrobenzofuran-5-yl)methyl)phenyl)-6-(hydroxymethyl)-tetrahydro-2H-pyran-3,4,5-triol] gave an IC50 of 7.62 nM.
Next, `CCOc1ccc(Cc2cc([C@@H]3O[C@H](CO)[C@@H](O)[C@H](O)[C@H]3O)c3c(c2Cl)OCCC3)cc1` [Example E157, (2S,3R,4R,5S,6R)-2-(8-Chloro-7-(4-ethoxybenzyl)chroman-5-yl)-6-(hydroxymethyl)tetrahydro-2H-pyran-3,4,5-triol]: 1.28 nM.

(Values after US9034921B2, “Diphenylmethane derivatives as SGLT2 inhibitors” (GREEN CROSS CORPORATION, priority 2011, dated 2015).)
